Article PMC11682962, “The histamine analogue clobenpropit modulates IRF7 phosphorylation and interferon production by targeting CXCR4 in systemic lupus erythematosus models” (Frontiers in Immunology, 2024)

Molecular target: T1, CXCR4 (Homo sapiens, UniProt P61073)
T1 construct: Nanoluc-CXCR4
Assay: NanoBRET competition binding against CXCL12-AF647 in transfected HEK293T cells; anti-IFN effect lost with CXCR4 siRNA
Assay type: cell-based

T1 sequence (P61073 whole entry): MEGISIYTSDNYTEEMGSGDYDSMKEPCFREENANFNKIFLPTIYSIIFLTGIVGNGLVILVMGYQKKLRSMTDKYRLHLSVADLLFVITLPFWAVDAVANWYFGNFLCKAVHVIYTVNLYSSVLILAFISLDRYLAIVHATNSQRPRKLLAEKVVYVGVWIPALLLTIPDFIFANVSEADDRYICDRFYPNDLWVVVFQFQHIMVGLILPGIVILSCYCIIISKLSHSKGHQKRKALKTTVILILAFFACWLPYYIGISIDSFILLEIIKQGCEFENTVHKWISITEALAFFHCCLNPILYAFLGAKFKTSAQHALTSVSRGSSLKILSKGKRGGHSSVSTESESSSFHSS

SMILES: NC(=NCc1ccc(Cl)cc1)SCCCc1cnc[nH]1 [CB, clobenpropit]
- Ki: 18.6 µM
